{"source": "patent US20180064153A1", "about": "“Methods of Protecting Against Brain Injury” (priority 2016, published 2018)", "test_system": "rats exposed to a low-pressure blast wave", "conditions": "30 days supplementation, 33/49"}
{"smiles": "NCCC(=O)O", "note": "[BA, beta-alanine]", "values": [{"measurement": "prevalence of well-adapted animals", "value": 67, "unit": "%"}]}
